Experimental data reported in patent US6852673B2, “Herbicidal pyridine compounds” (BASF Aktiengesellschaft, priority 1998, dated 2005).

Key:
Format in all cases: in vivo
Hordeum vulgare (HORVW) = test: Pre-emergence herbicidal evaluation, winter barley
Text: (§1) The pre-emergence herbicidal activity of the compounds of the present invention is exemplified by the following test in which the seeds of a variety of monocotyledonous and dicotyledonous plants are seperately mixed with potting soil and planted on top of approximately one inch of soil in separate pots. After planting, the pots are sprayed with the selected aqueous acetone solution containing test compound in sufficient quantity to provide the equivalent of about 0.0125 to 0.4 kg per hectare of test compound per pot. The treated pots are then placed on greenhouse benches, watered and cared for in accordance with conventional greenhouse procedures. From 2 to 4 weeks after treatment, the tests are terminated and each pot is examined and rated according to the rating system set forth below.

[1] = tested on: Triticum aestivum (TRZAW); test: Pre-emergence herbicidal evaluation, winter wheat
Text: as §1

[2] = tested on: Abutilon theophrasti (ABUTH); test: Pre-emergence herbicidal evaluation, velvetleaf
Text: as §1

[3] = tested on: Ipomoea hederacea (IPOHE); test: Pre-emergence herbicidal evaluation, morning glory
Text: as §1

Lamium purpureum (LAMPU) = test: Pre-emergence herbicidal evaluation, purple deadnettle
Text: as §1

[4] = tested on: Matricaria inodora (MATIN); test: Pre-emergence herbicidal evaluation, mayweed
Text: as §1

Solanum nigrum (SOLNI) = test: Pre-emergence herbicidal evaluation, black nightshade
Text: as §1

Stellaria media (STEME) = test: Pre-emergence herbicidal evaluation, chickweed
Text: as §1

[5] = tested on: Alopecurus myosuroides (ALOMY); test: Pre-emergence herbicidal evaluation, black grass
Text: as §1

[6] = tested on: Digitaria sanguinalis (DIGSA); test: Pre-emergence herbicidal evaluation, large crabgrass
Text: as §1

Setaria viridis (SETVI) = test: Pre-emergence herbicidal evaluation, green foxtail
Text: as §1

Galium aparine (GALAP) = test: Pre-emergence herbicidal evaluation, cleaver
Text: as §1

Structure (SMILES) | HORVW rating (Hordeum vulgare (HORVW); dose 0.025 kg/ha) | HORVW rating (Hordeum vulgare (HORVW); dose 0.1 kg/ha) | HORVW rating (Hordeum vulgare (HORVW); dose 0.4 kg/ha) | TRZAW rating ([1]; dose 0.025 kg/ha) | TRZAW rating ([1]; dose 0.1 kg/ha) | TRZAW rating ([1]; dose 0.4 kg/ha) | ABUTH rating ([2]; dose 0.025 kg/ha) | ABUTH rating ([2]; dose 0.1 kg/ha) | ABUTH rating ([2]; dose 0.4 kg/ha) | IPOHE rating ([3]; dose 0.025 kg/ha) | IPOHE rating ([3]; dose 0.1 kg/ha) | IPOHE rating ([3]; dose 0.4 kg/ha) | LAMPU rating (Lamium purpureum (LAMPU); dose 0.025 kg/ha) | LAMPU rating (Lamium purpureum (LAMPU); dose 0.1 kg/ha) | LAMPU rating (Lamium purpureum (LAMPU); dose 0.4 kg/ha) | MATIN rating ([4]; dose 0.025 kg/ha) | MATIN rating ([4]; dose 0.1 kg/ha) | MATIN rating ([4]; dose 0.4 kg/ha) | STEME rating (Stellaria media (STEME); dose 0.025 kg/ha) | STEME rating (Stellaria media (STEME); dose 0.1 kg/ha) | other results
CC(Cl)=CCOc1cc(C#N)cc(Oc2csc(C(F)(F)F)c2)n1 [Example 28] | 0 (0 - No effect) | 1 (1 - Trace effect) | 3 (3 - Moderate effect) | 0 (0 - No effect) | 0 (0 - No effect) | 1 (1 - Trace effect) | 5 (5 - Definite injury) | 7 (7 - Good herbicidal effect) | 8 (8 - Approaching complete kill) | 0 (0 - No effect) | 0 (0 - No effect) | 1 (1 - Trace effect) | 5 (5 - Definite injury) | 8 (8 - Approaching complete kill) | 8 (8 - Approaching complete kill) | 9 (9 - Complete kill) | 9 (9 - Complete kill) | 9 (9 - Complete kill) | 9 (9 - Complete kill) | 9 (9 - Complete kill) | SOLNI rating (Solanum nigrum (SOLNI); dose 0.025 kg/ha): 4 (4 - Injury); SOLNI rating (Solanum nigrum (SOLNI); dose 0.1 kg/ha): 8 (8 - Approaching complete kill); SOLNI rating (Solanum nigrum (SOLNI); dose 0.4 kg/ha): 8 (8 - Approaching complete kill); STEME rating (Stellaria media (STEME); dose 0.4 kg/ha): 9 (9 - Complete kill); ALOMY rating ([5]; dose 0.025 kg/ha): 3 (3 - Moderate effect); ALOMY rating ([5]; dose 0.1 kg/ha): 8 (8 - Approaching complete kill); ALOMY rating ([5]; dose 0.4 kg/ha): 9 (9 - Complete kill); DIGSA rating ([6]; dose 0.025 kg/ha): 3 (3 - Moderate effect); DIGSA rating ([6]; dose 0.1 kg/ha): 9 (9 - Complete kill); DIGSA rating ([6]; dose 0.4 kg/ha): 9 (9 - Complete kill)
CC(Cl)=CCOc1nc(Oc2cc(C(F)(F)F)nn2C)c(F)c(C)c1F [Example 35] |  |  |  |  |  |  |  |  |  |  |  |  |  |  |  |  |  |  |  |  | TRZAW rating ([1]; dose 0.04 kg/ha): 1 (1 - Trace effect); TRZAW rating ([1]; dose 0.06 kg/ha): 3 (3 - Moderate effect); TRZAW rating ([1]; dose 0.12 kg/ha): 3 (3 - Moderate effect); MATIN rating ([4]; dose 0.04 kg/ha): 9 (9 - Complete kill); MATIN rating ([4]; dose 0.06 kg/ha): 9 (9 - Complete kill); MATIN rating ([4]; dose 0.12 kg/ha): 9 (9 - Complete kill); STEME rating (Stellaria media (STEME); dose 0.04 kg/ha): 8 (8 - Approaching complete kill); STEME rating (Stellaria media (STEME); dose 0.06 kg/ha): 9 (9 - Complete kill); STEME rating (Stellaria media (STEME); dose 0.12 kg/ha): 9 (9 - Complete kill); ALOMY rating ([5]; dose 0.04 kg/ha): 9 (9 - Complete kill); ALOMY rating ([5]; dose 0.06 kg/ha): 9 (9 - Complete kill); ALOMY rating ([5]; dose 0.12 kg/ha): 9 (9 - Complete kill); SETVI rating (Setaria viridis (SETVI); dose 0.04 kg/ha): 8 (8 - Approaching complete kill); SETVI rating (Setaria viridis (SETVI); dose 0.06 kg/ha): 9 (9 - Complete kill); SETVI rating (Setaria viridis (SETVI); dose 0.12 kg/ha): 9 (9 - Complete kill)
C=C(Cl)COc1cc(C)cc(Oc2cc(C(F)(F)F)nn2C)n1 [Example 36] | 2 (2 - Slight effect) | 3 (3 - Moderate effect) | 5 (5 - Definite injury) | 0 (0 - No effect) | 2 (2 - Slight effect) | 2 (2 - Slight effect) | 5 (5 - Definite injury) | 5 (5 - Definite injury) | 8 (8 - Approaching complete kill) | 2 (2 - Slight effect) | 3 (3 - Moderate effect) | 9 (9 - Complete kill) | 7 (7 - Good herbicidal effect) | 8 (8 - Approaching complete kill) | 9 (9 - Complete kill) | 7 (7 - Good herbicidal effect) | 9 (9 - Complete kill) | 9 (9 - Complete kill) | 5 (5 - Definite injury) | 9 (9 - Complete kill) | GALAP rating (Galium aparine (GALAP); dose 0.025 kg/ha): 0 (0 - No effect); GALAP rating (Galium aparine (GALAP); dose 0.1 kg/ha): 3 (3 - Moderate effect); GALAP rating (Galium aparine (GALAP); dose 0.4 kg/ha): 8 (8 - Approaching complete kill); STEME rating (Stellaria media (STEME); dose 0.4 kg/ha): 9 (9 - Complete kill); ALOMY rating ([5]; dose 0.025 kg/ha): 4 (4 - Injury); ALOMY rating ([5]; dose 0.1 kg/ha): 8 (8 - Approaching complete kill); ALOMY rating ([5]; dose 0.4 kg/ha): 9 (9 - Complete kill); DIGSA rating ([6]; dose 0.025 kg/ha): 8 (8 - Approaching complete kill); DIGSA rating ([6]; dose 0.1 kg/ha): 9 (9 - Complete kill); DIGSA rating ([6]; dose 0.4 kg/ha): 9 (9 - Complete kill); SETVI rating (Setaria viridis (SETVI); dose 0.025 kg/ha): 9 (9 - Complete kill); SETVI rating (Setaria viridis (SETVI); dose 0.1 kg/ha): 9 (9 - Complete kill); SETVI rating (Setaria viridis (SETVI); dose 0.4 kg/ha): 9 (9 - Complete kill)
